According to patent US10357483B2, “Methods comprising dosing combinations for reducing undesired humoral immune responses” (Selecta Biosciences, Inc., priority 2013, dated 2019):

How the values were obtained:
[1] = system: C57BL/6; assay: Anti-KRYSTEXXA IgM antibody titers; assay type: in vivo, mice; settings: 0.9 mg nanocarriers + 40 μg KRYSTEXXA i.v. days −21 and −14; then 100 μg KRYSTEXXA + 20 μg CpG s.c. day 0 to 28
Description: All animals received weekly injections from day 0 to day 28 of 100 μg of KRYSTEXXA combined with 20 μg of CpG s.c. in the hind limb (d0, 7, 12, 28).

[2] = system: huTNFaTg; assay: Anti-HUMIRA antibody titers in arthritic animals (Example 9); assay type: in vivo, mice; settings: 60 μg HUMIRA s.c. weekly; 0.87 mg nanocarriers with first 7 injections; FIG. 9A day 21
Description: (§1) Transgenic animals overexpressing human tumor necrosis factor alpha (huTNFaTg) develop progressive rheumatoid arthritis over the course of 20 weeks from birth. This process can be prevented by using the fully human anti-human TNFα antibody HUMIRA/adalimumab. However, repetitive administration of the initial therapeutic dose of HUMIRA (60 μg) leads to anti-drug antibody formation (ADA) that neutralizes the therapeutic benefit. Only very high doses can then maintain the therapeutic benefit and surmount the neutralizing immune response. For example, it is thought that about 200 μg is needed to effect maximal inhibition of inflammation in an example of such a mouse model (Binder et al., Arthritis & Rheumatism, Vol. 65 (No. 3), March 2013, pp. 608-617).
(§2) The results in FIG. 9A show the antibody titers in the blood of all animals at day 21.

[3] = system: HuTNFαTg; assay: Arthritis scores of limbs in arthritic animals (Example 14); assay type: in vivo; settings: HUMIRA s.c. weekly weeks 5-10; nanocarriers with first 3 injections
Description: Age-matched HuTNFαTg 5 week old female animals were either injected s.c. in the subscapular area with saline (PBS) or 60 μg or 200 μg of HUMIRA weekly (weeks 5-10) or with a mixture of 60 μg of Humira and 0.87 mg of tolerogenic nanoparticles (first dosings) for the first 3 injections (week 5 to 7 of age) followed by 3 weekly injections of HUMIRA alone (same amounts) (second dosings) (weeks 8 to 10 of age). The results in FIG. 11 (left panel) show the antibody titers in the blood of all animals at different time points. […] FIG. 12 illustrates the dosing regimen.

[4] = system: HuTNFαTg; assay: Anti-HUMIRA antibody titers in arthritic animals (Example 14); assay type: in vivo; settings: HUMIRA s.c. weekly weeks 5-10; 0.87 mg nanoparticles with 60 μg Humira for first 3 injections
Description: Anti-HUMIRA immune and neutralizing responses in arthritic animals were evaluated. Transgenic animals overexpressing human tumor necrosis factor alpha (huTNFαTg) develop progressive rheumatoid arthritis over the course of 20 weeks from birth. This process can be prevented by using the fully human anti-human TNFα antibody Adalimumab or HUMIRA. However repetitive administration of the initial therapeutic dose of HUMIRA (60 μg) leads to anti-drug antibody formation (ADA) that neutralizes the therapeutic benefit. Higher quantities of Humira (200 μg can be injected to overcome this antagonizing immune response to allow for the therapeutic effect of Humira. Age-matched HuTNFαTg 5 week old female animals were either injected s.c. in the subscapular area with saline (PBS) or 60 μg or 200 μg of HUMIRA weekly (weeks 5-10) or with a mixture of 60 μg of Humira and 0.87 mg of tolerogenic nanoparticles (first dosings) for the first 3 injections (week 5 to 7 of age) followed by 3 weekly injections of HUMIRA alone (same amounts) (second dosings) (weeks 8 to 10 of age). The results in FIG. 11 (left panel) show the antibody titers in the blood of all animals at different time points. […] FIG. 12 illustrates the dosing regimen.

[5] = system: huTNFaTg; assay: Arthritis scores of limbs in arthritic animals (Example 9); assay type: in vivo, mice; settings: 60 μg HUMIRA s.c. weekly, weeks 5 to 15 of age; 0.87 mg nanocarriers with first 7 injections
Description: as §1, §2

[6] = system: C57BL/6; assay: Anti-HUMIRA antibody titers in blood; assay type: in vivo, mice; settings: day 21; 60 μg HUMIRA s.c. weekly; 0.9 mg nanocarrier admixed on day 0 only
Description: Control C57BL/6 age-matched (5-6 weeks) females were injected subcutaneously (s.c.) in the front limbs with 60 μg of HUMIRA once a week until day 29 (on d0, 7, 14, 22, 29, across all groups and conditions). […] The results presented in FIG. 3A show the antibody titers in the blood of all animals at day 21. […] At day 29, the animals received another challenge in one hind limb (a further second dosing) while the other hind limb received saline in order to test the local antibody-mediated type I hypersensitivity response. For this, the thickness of the hind limbs were measured with the help of a caliper one hour after the injection.

[7] = system: huTNFaTg; settings: such a mouse model; Binder et al. 2013; cited from earlier work
[8] = system: C57BL/6; assay: Anti-OVA and anti-KLH IgG antibody titers (Example 7); assay type: in vivo, mice; settings: day 54; pOVA 2.5 μg i.v. weekly; 0.2 mg nanocarriers admixed days 0, 7, 14
Description: The control group of C57BL/6 age-matched (5-6 weeks) female were injected i.v. in the tail vein with 2.5 μg of an immunogenic form of particulate Ovalbumin (pOVA) and 2 μg of Keyhole Limpet Hemocyanin (KLH) s.c. in the hind limb once a week for 49 days (d0, 7, 14, 20, 28, 35, 42, 49).

Molecule: pegloticase [KRYSTEXXA]
- anti-KRYSTEXXA IgM antibody titers [1]: develop an immune response against KRYSTEXXA

Molecule: adalimumab [HUMIRA]
- anti-HUMIRA antibody titers [2]: robust antibody response
- arthritis scores (disease progression) [3]: significant blockade of the disease progression
- anti-HUMIRA antibody titers [4]: robust anti-HUMIRA antibody response
- arthritis scores (disease progression) [5]: significant blockade of the disease progression
- anti-HUMIRA antibody titers [6]: robust antibody response against HUMIRA
- dose needed to effect maximal inhibition of inflammation [7]: about 200 μg

B1: pOVA: immunogenic form of particulate Ovalbumin (protein, UniProt P01012 2-386, looked up)
Ovalbumin: GSIGAASMEFCFDVFKELKVHHANENIFYCPIAIMSALAMVYLGAKDSTRTQINKVVRFDKLPGFGDSIEAQCGTSVNVHSSLRDILNQITKPNDVYSFSLASRLYAEERYPILPEYLQCVKELYRGGLEPINFQTAADQARELINSWVESQTNGIIRNVLQPSSVDSQTAMVLVNAIVFKGLWEKAFKDEDTQAMPFRVTEQESKPVQMMYQIGLFRVASMASEKMKILELPFASGTMSMLVLLPDEVSGLEQLESIINFEKLTEWTSSNVMEERKIKVYLPRMKMEEKYNLTSVLMAMGITDVFSSSANLSGISSAESLKISQAVHAAHAEINEAGREVVGSAEAGVDAASVSEEFRADHPFLFCIKHIATNAVLFFGRCVSP
modifications: particulate form
notes: immunogenic form of particulate Ovalbumin
- anti-OVA IgG antibody titers [8]: robust immune response against OVA and KLH
